# Experimental data published in ChEMBL document CHEMBL5241130, “Integrating a phenotypic screening with a structural simplification strategy to identify 4-phenoxy-quinoline derivatives to potently disrupt the mitotic localization of Aurora kinase B” (Bioorg Med Chem, 2023).
# Biological target: Aurora kinase B (Homo sapiens) (UniProt Q96GD4)
# Assay: Disruption of mitotic localization of AURKB in human RPE-MYC H2B-GFP cells assessed as proportion of polyploid cells in fully attached cell population at 0.078 uM measured after 48 hrs by fluorescence high content cell imaging analysis (Rvb <1%)
# Format: cell-based
# Chain of Aurora kinase B (Homo sapiens) (Q96GD4 whole entry): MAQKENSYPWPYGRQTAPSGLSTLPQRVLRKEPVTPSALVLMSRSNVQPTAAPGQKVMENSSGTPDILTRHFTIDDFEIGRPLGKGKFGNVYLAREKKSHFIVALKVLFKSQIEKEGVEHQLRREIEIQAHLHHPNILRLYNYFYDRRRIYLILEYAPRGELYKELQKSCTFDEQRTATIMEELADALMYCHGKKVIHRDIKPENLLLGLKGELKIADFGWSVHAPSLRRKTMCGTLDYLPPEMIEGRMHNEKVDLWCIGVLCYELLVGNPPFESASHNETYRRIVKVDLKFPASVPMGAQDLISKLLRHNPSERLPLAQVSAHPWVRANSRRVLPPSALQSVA
row,Activity [%],SMILES
1,100,Cc1csc(-c2nnc(Nc3ccc(Oc4ccnc5ccccc45)cc3)c3ccccc23)c1

# Biological target: T1, Aurora kinase A (Homo sapiens) (UniProt O14965)
# T1 sequence (whole entry): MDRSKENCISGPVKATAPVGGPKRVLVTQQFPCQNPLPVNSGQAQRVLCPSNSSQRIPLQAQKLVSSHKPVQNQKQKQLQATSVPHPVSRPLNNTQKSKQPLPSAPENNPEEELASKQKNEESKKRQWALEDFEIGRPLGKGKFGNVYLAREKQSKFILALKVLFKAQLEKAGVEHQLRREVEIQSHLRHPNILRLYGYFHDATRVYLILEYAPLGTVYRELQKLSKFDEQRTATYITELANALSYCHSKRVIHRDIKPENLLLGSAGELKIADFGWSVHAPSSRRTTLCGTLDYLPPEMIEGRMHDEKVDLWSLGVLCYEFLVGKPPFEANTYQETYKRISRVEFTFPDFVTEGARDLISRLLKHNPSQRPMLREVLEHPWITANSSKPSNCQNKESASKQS
# Assay: Inhibition of AURKA in human RPE-MYC H2B-GFP cells assessed as inhibition of autophosphorylation of AURKA at Thr288 residue by measuring residual enzyme activity at 0.312 uM measured after 6 hrs by immunofluorescence staining analysis (reference value: 100 +/-1%)
# Format: cell-based
row,Activity [%],SMILES
1,100,Cc1csc(-c2nnc(Nc3ccc(Oc4ccnc5ccccc45)cc3)c3ccccc23)c1

# Biological target: Aurora kinase B (Homo sapiens) (UniProt Q96GD4)
# Assay: Disruption of mitotic localization of AURKB in human RPE-MYC H2B-GFP cells assessed as mitotic index at 0.156 uM measured after 6 hrs by fluorescence high content cell imaging analysis (reference value: 4.7+/-0.4%)
# Format: cell-based
row,Activity [%],SMILES
1,9.8,Cc1csc(-c2nnc(Nc3ccc(Oc4ccnc5ccccc45)cc3)c3ccccc23)c1

# Biological target: Aurora kinase B (Homo sapiens) (UniProt Q96GD4)
# Assay: Inhibition of AURKB in human RPE-MYC H2B-GFP cells assessed as inhibition of histone H3 phosphorylation at Ser10 residue by measuring residual enzyme activity at 0.078 uM measured after 6 hrs by immunofluorescence staining analysis (reference value: 100 +/-9%)
# Format: cell-based
row,Activity [%],SMILES
1,98,Cc1csc(-c2nnc(Nc3ccc(Oc4ccnc5ccccc45)cc3)c3ccccc23)c1

# Biological target: Aurora kinase B (Homo sapiens) (UniProt Q96GD4)
# Assay: Disruption of mitotic localization of AURKB in human RPE-MYC H2B-GFP cells assessed as induction of mitotic arrest measured after 24 hrs by fluorescence high content cell imaging analysis
# Format: cell-based
row,MEC [µM],SMILES
1,> 40,COc1cc(Oc2ccnc3cc(C(F)(F)F)ccc23)cc(-n2cccn2)c1
2,0.039,COc1cc(NC(C)=O)cc(Oc2ccnc3cc(OC)c(OC)cc23)c1
3,1.25,COC(=O)c1cc2c(Oc3cc(NC(C)=O)cc(OC)c3)ccnc2cc1OC

# Biological target: Aurora kinase B (Homo sapiens) (UniProt Q96GD4)
# Assay: Disruption of mitotic localization of AURKB in human RPE-MYC H2B-GFP cells assessed as mitotic index at 0.312 uM measured after 6 hrs by fluorescence high content cell imaging analysis (reference value: 4.7+/-0.4%)
# Format: cell-based
row,Activity [%],SMILES
1,10.1,Cc1csc(-c2nnc(Nc3ccc(Oc4ccnc5ccccc45)cc3)c3ccccc23)c1

# Biological target: T1, Aurora kinase A (Homo sapiens)
# Assay: Inhibition of AURKA in human RPE-MYC H2B-GFP cells assessed as inhibition of autophosphorylation of AURKA at Thr288 residue by measuring residual enzyme activity at 0.156 uM measured after 6 hrs by immunofluorescence staining analysis (reference value: 100 +/-1%)
# Format: cell-based
row,Activity [%],SMILES
1,100,Cc1csc(-c2nnc(Nc3ccc(Oc4ccnc5ccccc45)cc3)c3ccccc23)c1

# Biological target: Aurora kinase B (Homo sapiens) (UniProt Q96GD4)
# Assay: Inhibition of AURKB in human RPE-MYC H2B-GFP cells assessed as inhibition of histone H3 phosphorylation at Ser10 residue by measuring residual enzyme activity at 0.156 uM measured after 6 hrs by immunofluorescence staining analysis (reference value: 100 +/-9%)
# Format: cell-based
row,Activity [%],SMILES
1,21.4,Cc1csc(-c2nnc(Nc3ccc(Oc4ccnc5ccccc45)cc3)c3ccccc23)c1

# Biological target: Aurora kinase B (Homo sapiens) (UniProt Q96GD4)
# Assay: Disruption of mitotic localization of AURKB in human RPE-MYC H2B-GFP cells assessed as proportion of polyploid cells in fully attached cell population at 0.156 uM measured after 48 hrs by fluorescence high content cell imaging analysis (Rvb <1%)
# Format: cell-based
row,Activity [%],SMILES
1,100,Cc1csc(-c2nnc(Nc3ccc(Oc4ccnc5ccccc45)cc3)c3ccccc23)c1

# Biological target: Aurora kinase B (Homo sapiens) (UniProt Q96GD4)
# Assay: Disruption of mitotic localization of AURKB in human RPE-MYC H2B-GFP cells assessed as proportion of polyploid cells in fully attached cell population at 0.312 uM measured after 48 hrs by fluorescence high content cell imaging analysis (Rvb <1%)
# Format: cell-based
row,Activity [%],SMILES
1,100,Cc1csc(-c2nnc(Nc3ccc(Oc4ccnc5ccccc45)cc3)c3ccccc23)c1

# Biological target: T1, Aurora kinase A (Homo sapiens)
# Assay: Inhibition of AURKA in human RPE-MYC H2B-GFP cells assessed as inhibition of autophosphorylation of AURKA at Thr288 residue by measuring residual enzyme activity at 0.078 uM measured after 6 hrs by immunofluorescence staining analysis (reference value: 100 +/-1%)
# Format: cell-based
row,Activity [%],SMILES
1,100,Cc1csc(-c2nnc(Nc3ccc(Oc4ccnc5ccccc45)cc3)c3ccccc23)c1

# Biological target: Aurora kinase B (Homo sapiens) (UniProt Q96GD4)
# Assay: Disruption of mitotic localization of AURKB in human RPE-MYC H2B-GFP cells assessed as mitotic index at 0.078 uM measured after 6 hrs by fluorescence high content cell imaging analysis (reference value: 4.7+/-0.4%)
# Format: cell-based
row,Activity [%],SMILES
1,11,Cc1csc(-c2nnc(Nc3ccc(Oc4ccnc5ccccc45)cc3)c3ccccc23)c1

# Biological target: Aurora kinase B (Homo sapiens) (UniProt Q96GD4)
# Assay: Disruption of mitotic localization of AURKB in human RPE-MYC H2B-GFP cells assessed as induction of polyploidy by fluorescence high content cell imaging analysis
# Format: cell-based
row,MEC [µM],SMILES
1,> 40,COc1cc(Oc2ccnc3cc(C(F)(F)F)ccc23)cc(-n2cccn2)c1
2,0.078,COc1cc(NC(C)=O)cc(Oc2ccnc3cc(OC)c(OC)cc23)c1
3,1.25,COC(=O)c1cc2c(Oc3cc(NC(C)=O)cc(OC)c3)ccnc2cc1OC

# Biological target: Aurora kinase B (Homo sapiens) (UniProt Q96GD4)
# Assay: Inhibition of AURKB in human RPE-MYC H2B-GFP cells assessed as inhibition of histone H3 phosphorylation at Ser10 residue by measuring residual enzyme activity at 0.312 uM measured after 6 hrs by immunofluorescence staining analysis (reference value: 100 +/-9%)
# Format: cell-based
row,Activity [%],SMILES
1,0,Cc1csc(-c2nnc(Nc3ccc(Oc4ccnc5ccccc45)cc3)c3ccccc23)c1
